Entries after “also recorded” stand apart in the source; their conditions may differ. Read-outs that look alike come from different tables or passages of the source.
Experiments:
Type 1 herpes simplex = experiment: In vitro activity against Type 1 herpes simplex, virus rating (VR) method of Sidwell et al; assay type: cell-based; details: for virus rating (VR): method of Sidwell et al. Appl. Microbiol. 22, 797 (1971)
[1] = literature; cited from earlier work
measles virus = experiment: Plaque inhibition (measles virus); assay type: cell-based; details: for inhibition at 20 µg/mL / inhibition at 100 µg/mL / inhibition at 500 µg/mL: Measles morbillivirus, 96 h, VERO cells, 4 days at 37°C, >=50% definite, 20 to 50 moderate, <20% little or no antiviral activity; for inhibition at 20 µg/mL: read-out: Percent Plaque Inhibition at 20 µg/mL; for inhibition at 100 µg/mL: read-out: Percent Plaque Inhibition at 100 µg/mL; for inhibition at 500 µg/mL: read-out: Percent Plaque Inhibition at 500 µg/mL
[2] = D. C. Delong et al, 1971; cited from earlier work

Structure (SMILES)	activity against Type 1 herpes simplex (in words) (Type 1 herpes simplex; Sodium Salt Monohydrate)	virus rating (VR) (Type 1 herpes simplex)	antiviral activity (in words) [1]	inhibition at 20 µg/mL (measles virus) [%]	inhibition at 100 µg/mL (measles virus) [%]	inhibition at 500 µg/mL (measles virus) [%]	toxicity associated with employment in vivo (in words) [2]	activity against Type 1 herpes simplex (in words) (Type 1 herpes simplex)	activity against measles virus (in words) (measles virus; in vitro)
O.[NH-]C(=O)c1[nH]nnc1O.[Na+] [Compound 4, 4-Hydroxy-1,2,3-triazole-5-carboxamide Sodium Salt Monohydrate]	active	0.5	–	–	–	–	–	–	–
NC(=O)c1ncn([C@@H]2O[C@H](CO)[C@@H](O)[C@H]2O)n1 [1-β-D-ribofuranosyl-1,2,4-triazole-3-carboxamide]	–	–	substantial range of antiviral activity	–	–	–	–	–	–
NC(=O)c1nn([C@@H]2O[C@H](CO)[C@@H](O)[C@H]2O)nc1O [Compound 2, 5-Hydroxy-2-β-D-ribofuranosyl-1,2,3-triazole-4-carboxamide]	–	–	–	0	0	5	–	–	–
NC(=O)c1[nH]nc([C@@H]2O[C@H](CO)[C@@H](O)[C@H]2O)c1O [pyrazomycin]	–	–	exhibits a substantial range of antiviral activity	–	–	–	a degree of toxicity	–	–
NC(=O)c1[nH]nnc1O [Compound 3, 4-Hydroxy-1,2,3-triazole-5-carboxamide]	–	0.6	–	33	60	89	–	active	–
NC(=O)c1nnn([C@@H]2O[C@H](CO)[C@@H](O)[C@H]2O)c1O [Compound 1, 5-Hydroxy-1-β-D-ribofuranosyl-1,2,3-triazole-4-carboxamide]	–	0.6	–	33	84	100	–	exhibited in vitro activity; also recorded: active	exhibited in vitro activity

From patent US3948885A, “5-Hydroxyl-1,2,3-triazole-4-carboxamide nucleoside” (ICN Pharmaceuticals, Inc., priority 1973, dated 1976)
